This is an account of results in article PMC11062922 (Nature Chemical Biology, 2023).

Each structure is given as a SMILES string. Where “and” joins values, the source holds several entries; their conditions need not be identical. Equal entries are not always repeated. Where two headings read alike, the source gives them in different places.

The target of assay [1] is T1, PRKCB (Homo sapiens, UniProt P05771).
T1 construct: endogenous in cells
In words: Kinobeads full dose-response competition binding: PRKCB. Particulars: Gene Name PRKCB.

Assay [2] deals with 468 kinases. Set-up: KINOMEScan: unit not given here. Particulars: cited from earlier work; for KINOMEScan: published data.
For assay [3], the target named is T2, BUB1 (Homo sapiens, UniProt O43683).
T2 construct: endogenous in cells
In words: Kinobeads two-dose competition binding: BUB1. Particulars: read-out: Lestaurtinib Drugmatrix value, Gene Name BUB1.

In assay [4] the test system is ERCC2. In words: Kinobeads two-dose competition binding: ERCC2. Set-up: species or system human. Particulars: read-out: Lestaurtinib Drugmatrix value, Gene Name ERCC2; target ERCC2; each column = one Lestaurtinib control replicate (batch_R1-R3).
Assay [5] has as its target T3, PRKAR2A (Homo sapiens, UniProt P13861).
T3 construct: to maximize the representation of endogenous proteins; endogenous in cells
In words: Kinobeads competition binding, Lestaurtinib control replicates: PRKAR2A. Particulars: read-out: Lestaurtinib Drugmatrix value; Gene Name PRKAR2A; one column per experiment number and replicate (R1-R3).

The target in assay [6] is T4, PIP4K2C (Homo sapiens, UniProt Q8TBX8).
T4 construct: a mixture of lysates from five cancer cell lines; endogenous in cells
T4 sequence (Q8TBX8 1-421): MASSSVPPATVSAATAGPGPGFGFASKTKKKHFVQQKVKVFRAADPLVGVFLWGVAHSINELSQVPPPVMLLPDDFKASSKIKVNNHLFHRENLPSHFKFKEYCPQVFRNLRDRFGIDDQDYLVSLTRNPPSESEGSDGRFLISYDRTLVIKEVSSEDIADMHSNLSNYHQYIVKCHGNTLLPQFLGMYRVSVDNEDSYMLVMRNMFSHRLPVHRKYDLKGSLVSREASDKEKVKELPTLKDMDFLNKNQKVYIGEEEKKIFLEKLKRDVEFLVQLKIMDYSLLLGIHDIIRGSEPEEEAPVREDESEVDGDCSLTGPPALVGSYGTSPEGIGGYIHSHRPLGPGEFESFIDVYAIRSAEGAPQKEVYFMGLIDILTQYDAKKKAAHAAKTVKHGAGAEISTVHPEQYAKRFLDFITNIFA
The assay can be described thus: Kinobeads competition binding, Lestaurtinib control replicates: PIP4K2C. Particulars: read-out: Lestaurtinib Drugmatrix value; Gene Name PIP4K2C; one column per experiment number and replicate (R1-R3).

Assay [7] concerns the target T5, SPR (Homo sapiens, UniProt P35270).
T5 construct: endogenous in cells
The assay can be described thus: Kinobeads full dose-response competition binding: SPR. Particulars: Gene Name SPR.

For assay [8], the target named is T6, endogenous kinases and other proteins enriched by Kinobeads from mixed cancer cell lysates (Homo sapiens, UniProt Q9NWZ3).
T6 construct: endogenous in cells
The assay can be described thus: Kinobeads pulldown, full dose-response (eight doses).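 Also: competition with Kinobeads ε after inhibitor preincubation in lysate (5 mg/ml protein) for 45 min at 4 °C, DMSO control, doses 0.3–1,000 nM, label-free LC–MS/MS quantification.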 The format is binding. Particulars: target IRAK4.

Assay [9] has as its target T7, endogenous kinases and other proteins enriched by Kinobeads from mixed cancer cell lysates (Homo sapiens, UniProt Q96PY6).
T7 construct: endogenous in cells
The description is as above. Particulars: target NEK1. The format is binding.

For assay [10], the target named is T8, endogenous kinases and other proteins enriched by Kinobeads from mixed cancer cell lysates (Homo sapiens, UniProt Q9NQS7).
T8 construct: endogenous in cells
T8 sequence (Q9NQS7 whole entry): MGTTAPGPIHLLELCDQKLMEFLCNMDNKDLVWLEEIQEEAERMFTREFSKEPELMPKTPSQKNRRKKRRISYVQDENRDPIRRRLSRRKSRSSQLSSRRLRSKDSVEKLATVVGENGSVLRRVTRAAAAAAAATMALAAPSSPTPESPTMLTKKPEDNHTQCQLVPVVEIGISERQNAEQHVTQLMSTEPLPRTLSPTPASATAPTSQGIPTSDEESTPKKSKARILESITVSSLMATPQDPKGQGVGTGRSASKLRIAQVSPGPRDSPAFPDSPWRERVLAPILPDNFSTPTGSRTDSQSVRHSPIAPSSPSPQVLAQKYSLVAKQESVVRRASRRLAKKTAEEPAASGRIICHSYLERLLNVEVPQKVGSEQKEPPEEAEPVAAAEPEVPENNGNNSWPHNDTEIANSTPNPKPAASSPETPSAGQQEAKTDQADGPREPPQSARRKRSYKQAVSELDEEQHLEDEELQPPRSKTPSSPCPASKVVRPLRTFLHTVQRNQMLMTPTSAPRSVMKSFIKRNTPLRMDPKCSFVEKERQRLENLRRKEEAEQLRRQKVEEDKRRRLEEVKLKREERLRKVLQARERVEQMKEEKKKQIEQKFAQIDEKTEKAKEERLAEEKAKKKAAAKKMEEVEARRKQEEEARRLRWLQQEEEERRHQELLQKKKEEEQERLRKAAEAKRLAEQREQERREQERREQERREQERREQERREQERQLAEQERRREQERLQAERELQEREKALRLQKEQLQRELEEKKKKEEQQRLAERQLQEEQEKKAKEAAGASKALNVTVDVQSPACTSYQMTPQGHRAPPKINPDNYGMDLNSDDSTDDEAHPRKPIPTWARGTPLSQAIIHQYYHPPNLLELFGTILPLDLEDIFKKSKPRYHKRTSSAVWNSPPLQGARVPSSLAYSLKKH
The assay is described as above. The format is binding. Particulars: target INCENP.

The target of assay [11] is T9, endogenous kinases and other proteins enriched by Kinobeads from mixed cancer cell lysates (Homo sapiens, UniProt P35916).
T9 construct: endogenous in cells
The assay is described as above. The format is binding. Particulars: target FLT4.

For assay [12], the target named is T10, endogenous kinases and other proteins enriched by Kinobeads from mixed cancer cell lysates (Homo sapiens, UniProt P37173).
T10 construct: endogenous in cells
The assay is described as above. The format is binding. Particulars: target TGFBR2; read-out: apparent Kd.

Assay [13] addresses T11, endogenous kinases and other proteins enriched by Kinobeads from mixed cancer cell lysates (Homo sapiens, UniProt Q9H0K1).
T11 construct: endogenous in cells
The assay is described as above. The format is binding. Particulars: target SIK2.

For assay [14], the target named is T12, endogenous kinases and other proteins enriched by Kinobeads from mixed cancer cell lysates (Homo sapiens, UniProt O00444).
T12 construct: endogenous in cells
T12 sequence (O00444 whole entry): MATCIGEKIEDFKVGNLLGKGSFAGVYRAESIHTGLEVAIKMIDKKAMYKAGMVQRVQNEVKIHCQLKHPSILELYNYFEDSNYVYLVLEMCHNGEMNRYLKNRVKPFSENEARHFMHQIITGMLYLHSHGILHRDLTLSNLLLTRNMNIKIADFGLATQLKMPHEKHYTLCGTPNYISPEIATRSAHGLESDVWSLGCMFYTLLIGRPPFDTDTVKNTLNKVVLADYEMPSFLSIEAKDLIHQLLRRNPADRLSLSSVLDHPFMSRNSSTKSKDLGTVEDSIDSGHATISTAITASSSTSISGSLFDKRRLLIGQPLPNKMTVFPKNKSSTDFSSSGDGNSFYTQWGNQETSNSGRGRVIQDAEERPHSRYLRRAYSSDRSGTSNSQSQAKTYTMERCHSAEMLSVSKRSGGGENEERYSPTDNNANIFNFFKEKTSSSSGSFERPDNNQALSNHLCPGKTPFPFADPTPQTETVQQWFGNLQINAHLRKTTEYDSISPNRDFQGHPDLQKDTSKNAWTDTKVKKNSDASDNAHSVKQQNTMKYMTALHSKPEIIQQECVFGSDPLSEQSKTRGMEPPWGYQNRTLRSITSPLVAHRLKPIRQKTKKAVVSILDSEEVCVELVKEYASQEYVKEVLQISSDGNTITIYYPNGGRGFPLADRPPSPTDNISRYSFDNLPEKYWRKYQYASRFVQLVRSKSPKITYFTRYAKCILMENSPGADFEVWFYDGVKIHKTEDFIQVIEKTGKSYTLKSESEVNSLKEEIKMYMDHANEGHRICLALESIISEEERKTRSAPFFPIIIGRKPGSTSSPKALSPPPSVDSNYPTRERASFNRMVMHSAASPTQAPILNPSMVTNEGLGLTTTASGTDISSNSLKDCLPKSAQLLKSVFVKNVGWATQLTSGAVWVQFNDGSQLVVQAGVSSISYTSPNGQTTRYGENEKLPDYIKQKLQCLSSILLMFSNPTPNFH
Described as above. Particulars: target PLK4. The format is binding.

For assay [15], the target named is T13, endogenous kinases and other proteins enriched by Kinobeads from mixed cancer cell lysates (Homo sapiens, UniProt Q15375).
T13 construct: endogenous in cells
T13 sequence (Q15375 28-998): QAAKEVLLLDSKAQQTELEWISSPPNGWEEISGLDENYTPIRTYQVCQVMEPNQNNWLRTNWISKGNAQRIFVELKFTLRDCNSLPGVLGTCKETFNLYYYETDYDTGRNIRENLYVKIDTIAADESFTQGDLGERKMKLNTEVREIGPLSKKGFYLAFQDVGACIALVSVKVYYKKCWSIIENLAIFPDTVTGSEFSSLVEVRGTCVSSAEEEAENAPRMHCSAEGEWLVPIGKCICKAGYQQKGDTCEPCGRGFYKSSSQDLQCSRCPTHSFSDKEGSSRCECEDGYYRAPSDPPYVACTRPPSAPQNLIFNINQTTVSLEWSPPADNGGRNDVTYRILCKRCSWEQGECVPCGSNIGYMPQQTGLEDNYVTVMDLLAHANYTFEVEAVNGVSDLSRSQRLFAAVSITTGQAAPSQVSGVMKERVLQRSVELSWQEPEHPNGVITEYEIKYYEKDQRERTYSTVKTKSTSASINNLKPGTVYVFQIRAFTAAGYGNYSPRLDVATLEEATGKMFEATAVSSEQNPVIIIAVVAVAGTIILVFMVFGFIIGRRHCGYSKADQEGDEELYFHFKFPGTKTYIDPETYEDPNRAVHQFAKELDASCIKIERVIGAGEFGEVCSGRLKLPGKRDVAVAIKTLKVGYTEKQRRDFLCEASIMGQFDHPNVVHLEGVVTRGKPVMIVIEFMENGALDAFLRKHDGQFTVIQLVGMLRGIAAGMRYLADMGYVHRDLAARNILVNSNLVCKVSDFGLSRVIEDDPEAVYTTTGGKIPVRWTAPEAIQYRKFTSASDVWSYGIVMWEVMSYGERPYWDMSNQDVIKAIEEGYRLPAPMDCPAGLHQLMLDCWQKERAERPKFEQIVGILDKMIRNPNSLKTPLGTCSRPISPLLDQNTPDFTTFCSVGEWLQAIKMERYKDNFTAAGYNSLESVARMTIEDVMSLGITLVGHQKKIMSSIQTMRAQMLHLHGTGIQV
Described as above. The format is binding. Particulars: target EPHA7.

The mark [16] stands for this setting: EC50 with Correction, doses in nM, read-out: apparent Kd.
[17] abbreviates: eight-dose curve fit, doses in nM.

T1 sequence (P05771 whole entry): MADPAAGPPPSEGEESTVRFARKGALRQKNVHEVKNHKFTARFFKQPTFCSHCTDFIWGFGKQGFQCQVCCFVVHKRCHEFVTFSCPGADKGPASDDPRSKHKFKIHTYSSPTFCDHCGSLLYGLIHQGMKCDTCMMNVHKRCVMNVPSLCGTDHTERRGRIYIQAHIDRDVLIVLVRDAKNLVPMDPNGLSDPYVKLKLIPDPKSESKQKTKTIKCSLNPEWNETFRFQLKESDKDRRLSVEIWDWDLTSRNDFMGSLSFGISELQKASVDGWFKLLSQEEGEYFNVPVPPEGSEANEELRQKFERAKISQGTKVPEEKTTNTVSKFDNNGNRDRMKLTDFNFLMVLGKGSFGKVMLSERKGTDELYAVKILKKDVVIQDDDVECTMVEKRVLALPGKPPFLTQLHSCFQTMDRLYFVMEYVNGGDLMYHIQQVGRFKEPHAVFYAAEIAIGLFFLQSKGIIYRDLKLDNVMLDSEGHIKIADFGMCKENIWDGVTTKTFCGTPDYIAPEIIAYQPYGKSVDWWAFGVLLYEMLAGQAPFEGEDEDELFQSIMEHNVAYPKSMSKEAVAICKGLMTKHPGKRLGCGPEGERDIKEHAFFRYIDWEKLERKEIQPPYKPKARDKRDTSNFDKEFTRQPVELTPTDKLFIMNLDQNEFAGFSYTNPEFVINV
T5 sequence (P35270 whole entry): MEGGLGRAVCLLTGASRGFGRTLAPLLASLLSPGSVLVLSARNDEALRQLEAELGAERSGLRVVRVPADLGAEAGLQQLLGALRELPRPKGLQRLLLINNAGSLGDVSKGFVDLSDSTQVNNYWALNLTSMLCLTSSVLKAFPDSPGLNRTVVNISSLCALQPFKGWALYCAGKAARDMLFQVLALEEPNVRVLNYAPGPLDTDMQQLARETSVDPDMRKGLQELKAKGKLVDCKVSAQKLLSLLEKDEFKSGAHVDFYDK
T11 sequence (Q9H0K1 whole entry): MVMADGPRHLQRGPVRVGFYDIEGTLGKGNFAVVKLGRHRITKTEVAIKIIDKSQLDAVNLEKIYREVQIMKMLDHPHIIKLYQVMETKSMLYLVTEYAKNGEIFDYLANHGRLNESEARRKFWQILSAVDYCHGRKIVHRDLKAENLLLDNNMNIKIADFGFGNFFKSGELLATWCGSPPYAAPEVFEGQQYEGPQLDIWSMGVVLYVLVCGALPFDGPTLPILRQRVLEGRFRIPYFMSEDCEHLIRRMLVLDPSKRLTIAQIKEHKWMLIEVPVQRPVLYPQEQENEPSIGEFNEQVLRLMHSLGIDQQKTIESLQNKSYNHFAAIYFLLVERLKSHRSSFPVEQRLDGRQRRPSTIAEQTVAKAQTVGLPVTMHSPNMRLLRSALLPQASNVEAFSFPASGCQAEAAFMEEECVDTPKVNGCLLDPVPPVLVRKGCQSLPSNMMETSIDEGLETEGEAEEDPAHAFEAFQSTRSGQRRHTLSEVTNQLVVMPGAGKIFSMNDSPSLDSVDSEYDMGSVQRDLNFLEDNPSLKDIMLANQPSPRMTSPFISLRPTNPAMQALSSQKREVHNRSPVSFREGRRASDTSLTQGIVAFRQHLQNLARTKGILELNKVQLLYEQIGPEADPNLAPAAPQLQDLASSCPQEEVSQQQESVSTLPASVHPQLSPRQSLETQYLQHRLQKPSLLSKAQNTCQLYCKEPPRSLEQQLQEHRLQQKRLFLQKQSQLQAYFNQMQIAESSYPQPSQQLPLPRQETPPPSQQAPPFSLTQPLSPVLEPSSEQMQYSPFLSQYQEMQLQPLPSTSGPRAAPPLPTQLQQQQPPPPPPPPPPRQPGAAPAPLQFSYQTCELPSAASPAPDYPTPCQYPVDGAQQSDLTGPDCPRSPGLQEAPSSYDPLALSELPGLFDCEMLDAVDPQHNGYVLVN

In the case of `CCn1c(-c2nonc2N)nc2c(C#CC(C)(C)O)nc(OCCN)cc21` [GSK902056A], the “Relative Intensity 0.3nM” value in assay [1] (0.3nM compound, DMSO = 1) is listed as 1.022. For the same compound, in [1] (1nM compound, DMSO = 1), the “Relative Intensity 1nM” value worked out at 1.013. The “Relative Intensity 3nM” value in [1] (3nM compound, DMSO = 1) stood at 1.059. The “Relative Intensity 10nM” value in [1] (10nM compound, DMSO = 1) was 1.038. For the same compound, in assay [1] (30nM compound, DMSO = 1), the “Relative Intensity 30nM” value came out at 0.9653. Also, in assay [1] (100nM compound, DMSO = 1), the “Relative Intensity 100nM” value is given as 0.9. Also, the “Relative Intensity 300nM” value in [1] (300nM compound, DMSO = 1) is 0.7943. The “Relative Intensity 1000nM” value in assay [1] (1000nM compound, DMSO = 1) is recorded as 0.5993. In [1] (setting [16]), the Kd worked out at 401 nM. In assay [1] (setting [17]), the response was half-maximal at 410 nM (EC50).

Regarding `COc1cc(Nc2ncc3c(C)nc(-c4cc5ccccc5[nH]4)n3n2)cc(OC)c1OC` [GW869516X], the “number of kinases with more than 70% inhibition of binding” value in [2] (broad KINOMEscan assay covering 468 kinases, ref a previous study) was 33. Further, the KINOMEScan in assay [2] (kinase AMPK-alpha1) was 89; in assay [2] (kinase AMPK-alpha2), 61; in assay [2] (kinase BLK), 60; in assay [2] (kinase CIT) it was 100; in [2] (kinase CLK1), 88; in [2] (kinase CLK2), 75. In addition, the KINOMEScan in assay [2] (kinase CSNK2A1) is 96.4; in assay [2] (kinase CSNK2A2), 99.7; in [2] (kinase DDR1), 52; in assay [2] (kinase DDR2), 52; in assay [2] (kinase DYRK1A), 85; in assay [2] (kinase DYRK1B), 81. The KINOMEScan was 58 in assay [2] (kinase EPHB1); 75 in assay [2] (kinase FLT3-autoinhibited); 96.3 in assay [2] (kinase FLT3); 88 in assay [2] (kinase GCN2(Kin.Dom.2,S808G)); 79 in [2] (kinase HIPK1); 53 in [2] (kinase INSRR). The KINOMEScan in assay [2] (kinase JAK1(JH2domain-pseudokinase)) is 98.5; in [2] (kinase JAK2(JH1domain-catalytic)), 54; in [2] (kinase KIT), 72; in assay [2] (kinase LCK), 71; in assay [2] (kinase MAP3K4), 52; in assay [2] (kinase MEK5) it was 78. For the same compound, the KINOMEScan was 56 in assay [2] (kinase MERTK); 93.8 in assay [2] (kinase MLK1); 89 in assay [2] (kinase MLK2); 87 in assay [2] (kinase MLK3); 70 in assay [2] (kinase NEK2); 89 in [2] (kinase NEK3). Besides, the KINOMEScan in assay [2] (kinase NEK5) was 99; in [2] (kinase NEK6), 99.6; in assay [2] (kinase NEK7), 99.7; in [2] (kinase NEK9), 90; in assay [2] (kinase NEK11), 86; in assay [2] (kinase PAK3), 69. Moreover, the KINOMEScan is recorded as 89 in assay [2] (kinase PIP5K1C); 90.3 in assay [2] (kinase PIP5K2C); 51 in assay [2] (kinase PKAC-beta); 91.7 in assay [2] (kinase RSK1(Kin.Dom.1-N-terminal)); 66 in [2] (kinase RSK3(Kin.Dom.1-N-terminal)); 63 in assay [2] (kinase SLK). Also, the KINOMEScan is given as 90.1 in assay [2] (kinase SRC); 86 in assay [2] (kinase STK16); 53 in [2] (kinase SYK); 58 in assay [2] (kinase TBK1); 82 in assay [2] (kinase TYK2(JH2domain-pseudokinase)); 51 in [2] (kinase ULK2). The KINOMEScan in assay [2] (kinase WEE2) is on record as 85.

Regarding `C[C@]12O[C@H](C[C@]1(O)CO)n1c3ccccc3c3c4c(c5c6ccccc6n2c5c31)CNC4=O` [Lestaurtinib], the potency estimated from few doses was 854 nM in [3]; 161 nM and 261 nM in assay [4]; 979 nM in [5]; 86.5 nM in assay [6].

Take `NCc1ccc(-c2nc(-c3ccncc3)c(-c3ccc(Cl)c(O)c3)[nH]2)cc1` [SB-476429-A]: the “Relative Intensity 0.3nM” value in assay [7] (0.3nM compound, DMSO = 1) amounted to 0.9627. Also, in [7] (1nM compound, DMSO = 1), the “Relative Intensity 1nM” value worked out at 0.9101. For the same compound, in assay [7] (3nM compound, DMSO = 1), the “Relative Intensity 3nM” value is given as 0.8696. The “Relative Intensity 10nM” value in assay [7] (10nM compound, DMSO = 1) amounted to 0.7693. Besides, the “Relative Intensity 30nM” value in assay [7] (30nM compound, DMSO = 1) is given as 0.5216. Also, the “Relative Intensity 100nM” value in [7] (100nM compound, DMSO = 1) amounted to 0.1442. For the same compound, in assay [7] (300nM compound, DMSO = 1), the “Relative Intensity 300nM” value is 0.02935. Moreover, in assay [7] (1000nM compound, DMSO = 1), the “Relative Intensity 1000nM” value is reported as 0.01082. The Kd in assay [7] (setting [16]) is 32.8 nM. Also, the concentration giving a half-maximal response (EC50) – broadly, the concentration that produces a half-maximal response – in assay [7] (setting [17]) is 32.8 nM.

For the compound `Cn1cc(-c2nc(N[C@@H]3CCCC[C@@H]3N)c(F)c3c2C(=O)NC3)cn1` [TAK659], the concentration for a half-maximal effect (EC50) in assay [8] turned out to be 718 nM; in [9], 589 nM; in assay [10], 150 nM; in assay [11] it was 564 nM; in [13], 260 nM; in assay [14], 148 nM. Also, the EC50 in assay [15] came to 810 nM. Further, the Kd in assay [8] (read-out: apparent Kd) turned out to be 675 nM; in assay [9] (read-out: apparent Kd), 529 nM; in assay [10] (read-out: apparent Kd), 150 nM; in assay [11] (read-out: apparent Kd), 308 nM; in assay [12] it was 2960 nM; in assay [13] (read-out: apparent Kd) it was 140 nM. Besides, the figures for the Kd in [14] (read-out: apparent Kd) and in [15] (read-out: apparent Kd) were 77.2 nM and 617 nM, respectively.
